Like-named read-outs stand apart in the source and are kept apart here.
What was measured:
[1] = for animals that died after chemotherapy (in words): LD50 dose, within a few days; for Survival (%): 14 days
Description: Female C57BL/6 mice (average weight 15.03 g), were used and housed under standard conditions. The animals received free access to both food and water throughout the experiment after a one week acclimatization period prior to experimental manipulation. The mice were 6 weeks old on the beginning of the experiment and placed randomly in 12 groups of 5 mice per group.

[2] = Bioavailability of liposomal swainsonine; type: in vivo, Balb/c mice; settings: p.o. vs i.v.
Method: Female Balb/c mice, 5-6 weeks of age, were housed under standard conditions. […] Swainsonine (Toronto Res. Chem.) was radiolabeled with tritium. Tritiated swainsonine was administered as a lipid-based formulation (L-Im) and as an aqueous formulation containing the free drug (F-Im). Tritiated swainsonine was loaded into sphingomyelin/cholesterol (Avanti Polar Labs) sphingosomes using a citrate buffer pH 2 gradient at a drug-to-lipid ratio of 0.2:1 (mol:mol) and with an efficiency of loading of 80%. Two hundred microliters of the lipid and aqueous swainsonine formulations were given orally by gavage (p.o.), intraperitoneally (i.p.), or intravenously (i.v.). Fifty microliter blood samples were collected by retroorbital bleeds at 1, 3, 6, and 24 hours after administration. The blood samples were bleached and then counted in a scintillation counter. Results were expressed as the percentage of the administered dose in the blood at various time-points after administration.

bone marrow [3] = assay: Bone marrow cellularity after chemotherapy; type: in vivo, C57BL/6 mice; settings: 14 days after chemotherapy; orally or i.p., vs GM-CSF i.p. 10 days
Method: On the 15th day after the initial chemotherapeutic dose, 4 mice from each group of the immunomodulation study (Example 6) were randomly sacrificed and up to 1 ml of blood was obtained by cardiac puncture. Circulating peripheral WBCs were counted, blood smears (for neutrophil counts) were made and plasma samples were collected and tested for cytokine production (IL-1, IL-2, TNF). Blood cytokine levels (TNF, IL-1, and IL-2) were assayed by commercially available assay kits. The spleen, thymus and bone marrow were removed and single cell suspensions were prepared. The cellularity of these lymphoid organs was assessed by trypan blue exclusion test.

TNF-α = assay: TNF production by mitogen-stimulated splenocytes; type: in vivo, C57BL/6 mice; settings: vs chemotherapy-treated and PBS controls, FIG. 10A
Method: (§1) Cells from spleen, thymus and bone marrow were tested for their ability to respond to stimulation from different mitogens: ConA (1, 2.5 and 5 μg/ml) (Sigma), phytohemagglutinin (PHA) (1, and 2.5 μg/ml) (Sigma) and LPS (2.5 and 5 μg/ml) (Difco). After 72 hours of stimulation the proliferative response was measured using CellTiter 96 (Promega). Simultaneously, mitogen stimulated splenocytes were set up for cytokine production after ConA (2.5 μg/ml) and lipopolysaccharide (LPS) (2.5 μg/ml) stimulation. The supernatants were collected after 24 hr. and 48 hr. and tested for Tumor Necrosis Factor-α (TNF-α) and Interleukin-2 (IL-2) production using the direct ELISA method. Supernatants from unstimulated cells served as controls. Results are expressed as pg/ml of TNF-α (sensitivity of the assay is <25 pg/ml) or IL-2 (sensitivity of the assay is <3 pg/ml).

IL-2 = IL-2 production by mitogen-stimulated splenocytes; type: in vivo, C57BL/6 mice; settings: vs chemotherapy-treated and PBS controls, FIG. 10B
Method: as §1

[4] = In vitro oral stability in gastric contents; type: physicochemical; settings: simulated gastric contents; hydrochloric acid (pH2) with pepsin; up to 72 hours
Method: To establish an advantage for the oral route of administration, swainsonine was incubated in vitro in simulated gastric contents for various periods of time (1, 2, 4, 24, 48 and 72 hrs.) and the "oral stability" of swainsonine was determined. Swainsonine was also incubated in hydrochloric acid (pH2) containing the main gastric digestive enzyme, pepsin.

bone marrow [5] = settings: cited from earlier work
[6] = system: IL-1, IL-2, TNF, GM-CSF and interferons; settings: cited from earlier work
tumor cells = settings: in vitro; cited from earlier work
[7] = system: colon cancer and melanoma cancers; settings: combined with interferon, in vivo; cited from earlier work
[8] = Vincristine uptake into liposomes by pH gradient; type: physicochemical; settings: drug/lipid 0.1/1 (wt/wt), 10 minutes at 60° C
Method: Uptake of vincristine into large unilamellar liposomes was achieved using a pH gradient-dependent procedure described by Mayer et al., Cancer Chemother. Pharmacol. 33:17-24 (1993), incorporated herein by reference. Briefly, a solution of vincristine sulfate (Oncovin®, Eli Lilly, Indianapolis, Ind.) was added to liposomes at a drug/lipid ratio of 0.1/1 (wt/wt) and equilibrated at 60° C. for 5 to 10 minutes. Vincristine uptake in response to a transmembrane pH gradient was initiated by the addition of 0.5M Na2 HPO4 to bring the external pH to 7.2-7.6.

A431 tumors = assay: Antitumor efficacy against A431 tumors; type: in vivo, human A431 xenograft, SCID mice; settings: vincristine 2.0 mg/kg i.v.
Method: Tumor loading and antitumor efficacy properties of DSPC/Chol and SM/Chol liposomal formulations of vincristine were determined in mice bearing solid human A431 squamous cell xenograft tumors. These experiments were undertaken to ensure that the positive results observed in the murine ascitic P388 tumor model were representative of other tumor types. SCID mice bearing 100-200 mg solid human A431 tumors were injected i.v. with free vincristine or with liposomes of either DSPC/Chol or SM/Chol containing vincristine. Vincristine encapsulated DSPC/Chol and SM/Chol liposomes were prepared as in Example II. […] As observed in BDF1 mice bearing P388 tumors, the amount of vincristine remaining in the circulation in SM/Chol liposomes at 24 hours after injection was approximately 3-fold greater than for vincristine encapsulated in DSPC/Chol liposomes (FIG. 11A).
The antitumor efficacy of free and liposomal vincristine against A431 was closely correlated with vincristine accumulation at the tumor site (FIG. 12). […] This therapy was further enhanced by a single treatment of vincristine encapsulated in SM/Chol liposomes. […] Of the five mice (total of 10 tumors) treated with SM/Chol liposomal vincristine, 1 animal was terminated early due to tumor ulceration, not due to tumor growth.

[9] = in vivo; cited from earlier work

## COc1cccc2c1C(=O)c1c(O)c3c(c(O)c1C2=O)C[C@@](O)(C(=O)CO)C[C@@H]3O[C@H]1C[C@H](N)[C@H](O)[C@H](C)O1 [DOX, Doxorubicin]
[1]
  animals that died after chemotherapy (in words): half
[1]; i.p.
  Survival (%): 60%

## CN(Cc1cnc2nc(N)nc(N)c2n1)c1ccc(C(=O)N[C@@H](CCC(=O)O)C(=O)O)cc1 [MTX, methotrexate]
[1]
  animals that died after chemotherapy (in words): Half
[1]; i.p.
  Survival (%): 40%

## O[C@H]1[C@H]2[C@H](O)CCCN2C[C@H]1O [swainsonine]
[2]
  oral bioavailability compared to swainsonine administered intravenously: 60-65%
Bone marrow [3]
  bone marrow cellularity: performed as effectively as GM-CSF
TNF-α
  TNF level in stimulated splenocytes: significantly elevated
IL-2
  IL-2 level in stimulated splenocytes: significantly elevated
[4]
  in vitro oral stability: stable under these harsh conditions for up to 72 hours
[1]; i.p.
  Survival (%): 100%
[1]; p.o.
  Survival (%): 100%
[1]; swainsonine intravenously or i.p. / GM-CSF i.p., 10 days, after Mtx or Dox
  survival beyond 2 weeks after chemotherapy (in words): all animals
[1]; swainsonine p.o. 10 days after Mtx or Dox
  survival after cytotoxic treatment (in words): all but one animal
Bone marrow [5]
  bone marrow proliferation: has the capacity to stimulate bone marrow proliferation
[6]
  production of multiple cytokines: stimulates the production of multiple cytokines
Tumor cells
  B- and T-cell immunity, natural killer T-cell and macrophage-induced destruction of tumor cells: induces B- and T-cell immunity, natural killer T-cell and macrophage-induced destruction of tumor cells in vitro
[7]
  direct anti-tumor activity: direct anti-tumor activity against colon cancer and melanoma cancers

## CC[C@]1(O)C[C@H]2CN(CCc3c([nH]c4ccccc34)[C@@](C(=O)OC)(c3cc4c(cc3OC)N(C=O)[C@H]3[C@@](O)(C(=O)OC)[C@H](OC(C)=O)[C@]5(CC)C=CCN6CC[C@]43[C@@H]65)C2)C1 [vincristine]
[8]
  trapping efficiency: approximately 95%
A431 tumors
  delay in tumor growth / change in tumor size: brief delay in tumor growth
  time to 100% increase in tumor weight: 6 to 8 days
  time to required termination: 10 to 12 days

## sphingomyelin
[9]
  circulation lifetime of liposomes: increase in the circulation lifetime of liposomes
